In paper PMC8053501 (Diabetes, Metabolic Syndrome and Obesity: Targets and …, 2021):
Read-outs that look alike come from different tables or passages of the source. One block for each compound: values may come before it.

How the values were obtained:
in vivo = settings: male, ICR, mouse, po; for Cmax: oral gavage
[1] = normal mice, oral gavage, 3mg/kg
[2] = tested on: diabetes mellitus patients; assay: Acute kidney injury; assay type: in vivo, human; settings: for Association with AKI, Unadjusted (95% CI) / Association with AKI, Adjusted (95% CI): metformin as reference; for Association with AKI, Adjusted (95% CI): multivariate; for Association with AKI compared to control drug metformin, in words: multivariate analysis; for Events During the 90 days (AKI): primary endpoint, first 90 days, patients above 55 years; for Events at secondary end (AKI): secondary endpoint, after 90 days of hospital admission; for Total Percent (incidence rate of AKI at the end of the study): share of the 4966 total outcomes
[3] = Endpoint Diagnosis with 1047 Outcome
[4] = Secondary Diagnosis with 3919 Outcomes

Tmax (in vivo): 1 h | Tmax (in vivo; 3 mg/kg): 1 h | Drug concentration, time course ([1]; Kidney, 0h): 0 | Drug concentration, time course ([1]; Kidney, 6h): 16,500 | Drug concentration, time course ([1]; Kidney, 9h): 9500 | Drug concentration, time course ([1]; Kidney, 12h): 3500 | Drug concentration, time course ([1]; Kidney, 15h): 1000 | Drug concentration, time course ([1]; Kidney, 18h): 200 | Drug concentration, time course ([1]; Kidney, 21h): 100 | Drug concentration, time course ([1]; Kidney, 24h): 0 | Drug concentration, time course ([1]; Liver, 0h): 0 | Drug concentration, time course ([1]; Liver, 3h): 9500 | Drug concentration, time course ([1]; Liver, 6h): 7600 | Drug concentration, time course ([1]; Liver, 9h): 1800 | Drug concentration, time course ([1]; Liver, 12h): 600 | Drug concentration, time course ([1]; Liver, 15h): 150 | Drug concentration, time course ([1]; Liver, 18h): 0 | Drug concentration, time course ([1]; Liver, 21h): 0 | Drug concentration, time course ([1]; Liver, 24h): 0 | Drug concentration, time course ([1]; Plasma, 0h): 0 | Drug concentration, time course ([1]; Plasma, 3h): 600 | Drug concentration, time course ([1]; Plasma, 6h): 400 | Drug concentration, time course ([1]; Plasma, 9h): 140 | Drug concentration, time course ([1]; Plasma, 12h): 0 | Drug concentration, time course ([1]; Plasma, 15h): 0 | Drug concentration, time course ([1]; Plasma, 18h): 0 | Drug concentration, time course ([1]; Plasma, 21h): 0 | Drug concentration, time course ([1]; Plasma, 24h): 0
Structure (SMILES): CC(C)Cc1ccc(C(C)C(=O)O)cc1 (stereo not shown) [Ibuprofen, ibuprofen]
Association with AKI, Unadjusted (95% CI) [2, 3]: 3.14 (2.87–3.74) | Association with AKI, Adjusted (95% CI) [2, 3]: 2.41 (1.91–2.54) | Association with AKI, Unadjusted (95% CI) [2, 4]: 2.68 (2.21–3.03) | Association with AKI, Adjusted (95% CI) [2, 4]: 2.36 (1.84–2.93) | Association with AKI compared to control drug metformin, in words [2]: higher risk for AKI | Association with AKI compared to control drug metformin, in words ([2]; listed as ibuprofen): increased rate of AKI | Events During the 90 days (AKI) [2]: 124 | Events at secondary end (AKI) [2]: 433 | Total Percent (incidence rate of AKI at the end of the study) [2]: 11.22%

Tmax (in vivo): 1 h | Tmax (in vivo; 3 mg/kg): 1 h | Cmax (in vivo; 3 mg/kg, Kidney): 8560 ng/mL | Cmax (in vivo; 3 mg/kg, Liver): 6730 ng/mL | Cmax (in vivo; 3 mg/kg, Plasma): 943 ng/mL | half-life (in vivo; 3 mg/kg, t1/2): 2.4 h | Drug concentration, time course ([1]; Kidney, 0h): 0 | Drug concentration, time course ([1]; Kidney, 3h): 6700 | Drug concentration, time course ([1]; Kidney, 6h): 4300 | Drug concentration, time course ([1]; Kidney, 9h): 2350 | Drug concentration, time course ([1]; Kidney, 12h): 100 | Drug concentration, time course ([1]; Kidney, 15h): 50 | Drug concentration, time course ([1]; Kidney, 18h): 0 | Drug concentration, time course ([1]; Kidney, 21h): 0 | Drug concentration, time course ([1]; Kidney, 24h): 0 | Drug concentration, time course ([1]; Liver, 0h): 0 | Drug concentration, time course ([1]; Liver, 3h): 6340 | Drug concentration, time course ([1]; Liver, 6h): 3500 | Drug concentration, time course ([1]; Liver, 9h): 1980 | Drug concentration, time course ([1]; Liver, 12h): 300 | Drug concentration, time course ([1]; Liver, 15h): 100 | Drug concentration, time course ([1]; Liver, 18h): 0 | Drug concentration, time course ([1]; Liver, 21h): 0 | Drug concentration, time course ([1]; Liver, 24h): 0 | Drug concentration, time course ([1]; Plasma, 0h): 0 | Drug concentration, time course ([1]; Plasma, 3h): 400 | Drug concentration, time course ([1]; Plasma, 6h): 250 | Drug concentration, time course ([1]; Plasma, 9h): 50 | Drug concentration, time course ([1]; Plasma, 12h): 0 | Drug concentration, time course ([1]; Plasma, 15h): 0 | Drug concentration, time course ([1]; Plasma, 18h): 0 | Drug concentration, time course ([1]; Plasma, 21h): 0 | Drug concentration, time course ([1]; Plasma, 24h): 0
Structure (SMILES): Cn1c(=O)cc(N2CCC[C@@H](N)C2)n(Cc2ccccc2C#N)c1=O [Alogliptin, alogliptin]
Association with AKI, Unadjusted (95% CI) [2, 3]: 1.83 (1.75–2.16) | Association with AKI, Adjusted (95% CI) [2, 3]: 1.43 (1.31–2.04) | Association with AKI, Unadjusted (95% CI) [2, 4]: 2.27 (1.08–3.12) | Association with AKI, Adjusted (95% CI) [2, 4]: 2.85 (2.26–3.07) | Association with AKI compared to control drug metformin, in words [2]: increased rate of AKI | Events During the 90 days (AKI) [2]: 91 | Total endpoint (AKI events) ([2]; primary plus secondary endpoint): 364 | Events at secondary end (AKI) [2]: 273 | Total Percent (incidence rate of AKI at the end of the study) [2]: 7.33%
